The source made the active and inactive calls.
Columns and labels:
[1] = biological target: G-protein coupled receptor 55 (Homo sapiens, UniProt Q9Y2T6); test: GPR55 antagonists blocking LPI-driven arrestin recruitment, primary screen, imaging, U2OS, beta-arrestin-GFP, LPI agonist (AID 2013); assay type: functional;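 note: antagonist potency measured as reduced agonist-driven arrestin aggregation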
Protein RecA = biological target: T1, Protein RecA (Mycobacterium tuberculosis, UniProt P9WHJ3); test: Fluorescence Cell-Free Homogeneous Dose Retest to Identify Inhibitors of RecA-Intein Splicing Activity. [Related pubchem assays (depositor defined):AID2097, AID2223, AID489010, AID492950]; assay type: functional
T1 sequence (P9WHJ3 whole entry): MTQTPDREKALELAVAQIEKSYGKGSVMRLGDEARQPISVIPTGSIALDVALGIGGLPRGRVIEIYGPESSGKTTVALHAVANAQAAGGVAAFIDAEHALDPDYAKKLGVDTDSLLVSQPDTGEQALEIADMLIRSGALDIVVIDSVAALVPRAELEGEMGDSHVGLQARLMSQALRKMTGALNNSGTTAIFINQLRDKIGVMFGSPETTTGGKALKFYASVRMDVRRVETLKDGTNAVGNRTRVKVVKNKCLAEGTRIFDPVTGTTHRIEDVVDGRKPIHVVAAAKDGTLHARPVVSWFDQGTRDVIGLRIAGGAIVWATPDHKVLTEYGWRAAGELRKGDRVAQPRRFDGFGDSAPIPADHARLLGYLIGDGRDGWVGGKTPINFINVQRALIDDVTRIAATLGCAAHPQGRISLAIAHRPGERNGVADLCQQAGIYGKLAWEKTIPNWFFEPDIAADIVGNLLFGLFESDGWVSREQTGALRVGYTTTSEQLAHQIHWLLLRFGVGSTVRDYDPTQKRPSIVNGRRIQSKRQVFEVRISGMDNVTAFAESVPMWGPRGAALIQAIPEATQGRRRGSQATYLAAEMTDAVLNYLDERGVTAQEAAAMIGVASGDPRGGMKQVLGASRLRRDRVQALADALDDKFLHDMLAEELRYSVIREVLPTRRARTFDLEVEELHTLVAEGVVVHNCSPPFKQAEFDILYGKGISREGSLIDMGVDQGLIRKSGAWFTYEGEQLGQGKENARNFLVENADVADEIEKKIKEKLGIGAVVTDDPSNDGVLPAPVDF

[2] = biological target: T2, Heat shock factor protein 1 (Mus musculus, UniProt P38532); test: HSF1 potentiators in luciferase reporter cells, confirmation, cell-based, NIH3T3, luminescence, dose retest (AID 435004); assay type: functional;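 note: stress induced by proteasome inhibitor MG132 added 30 min after compound; luciferase reporter driven by HSF1 response element in NIH3T3 cells; actives raise luminescence as potentiators of the MG132 stress response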
T2 sequence (P38532 whole entry): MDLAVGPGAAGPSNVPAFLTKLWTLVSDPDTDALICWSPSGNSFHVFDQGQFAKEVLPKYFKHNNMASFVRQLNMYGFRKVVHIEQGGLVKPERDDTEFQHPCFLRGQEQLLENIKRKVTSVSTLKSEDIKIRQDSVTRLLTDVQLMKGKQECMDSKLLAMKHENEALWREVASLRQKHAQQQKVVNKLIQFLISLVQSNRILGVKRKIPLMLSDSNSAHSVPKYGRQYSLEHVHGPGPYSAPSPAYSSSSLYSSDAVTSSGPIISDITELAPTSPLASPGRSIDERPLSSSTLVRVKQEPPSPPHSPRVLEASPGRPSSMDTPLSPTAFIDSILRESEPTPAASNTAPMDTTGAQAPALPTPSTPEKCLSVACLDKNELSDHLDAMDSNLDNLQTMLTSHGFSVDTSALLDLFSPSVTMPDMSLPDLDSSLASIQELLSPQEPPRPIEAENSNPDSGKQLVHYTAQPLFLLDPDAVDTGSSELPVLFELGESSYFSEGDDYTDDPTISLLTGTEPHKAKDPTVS

[3] = biological target: T3, Replicative DNA helicase DnaB (Mycobacterium tuberculosis, UniProt P9WMR3); test: DnaB intein splicing inhibitors, dose response, biochemical, cell-free fluorescence (AID 449749); assay type: functional
T3 sequence (P9WMR3 whole entry): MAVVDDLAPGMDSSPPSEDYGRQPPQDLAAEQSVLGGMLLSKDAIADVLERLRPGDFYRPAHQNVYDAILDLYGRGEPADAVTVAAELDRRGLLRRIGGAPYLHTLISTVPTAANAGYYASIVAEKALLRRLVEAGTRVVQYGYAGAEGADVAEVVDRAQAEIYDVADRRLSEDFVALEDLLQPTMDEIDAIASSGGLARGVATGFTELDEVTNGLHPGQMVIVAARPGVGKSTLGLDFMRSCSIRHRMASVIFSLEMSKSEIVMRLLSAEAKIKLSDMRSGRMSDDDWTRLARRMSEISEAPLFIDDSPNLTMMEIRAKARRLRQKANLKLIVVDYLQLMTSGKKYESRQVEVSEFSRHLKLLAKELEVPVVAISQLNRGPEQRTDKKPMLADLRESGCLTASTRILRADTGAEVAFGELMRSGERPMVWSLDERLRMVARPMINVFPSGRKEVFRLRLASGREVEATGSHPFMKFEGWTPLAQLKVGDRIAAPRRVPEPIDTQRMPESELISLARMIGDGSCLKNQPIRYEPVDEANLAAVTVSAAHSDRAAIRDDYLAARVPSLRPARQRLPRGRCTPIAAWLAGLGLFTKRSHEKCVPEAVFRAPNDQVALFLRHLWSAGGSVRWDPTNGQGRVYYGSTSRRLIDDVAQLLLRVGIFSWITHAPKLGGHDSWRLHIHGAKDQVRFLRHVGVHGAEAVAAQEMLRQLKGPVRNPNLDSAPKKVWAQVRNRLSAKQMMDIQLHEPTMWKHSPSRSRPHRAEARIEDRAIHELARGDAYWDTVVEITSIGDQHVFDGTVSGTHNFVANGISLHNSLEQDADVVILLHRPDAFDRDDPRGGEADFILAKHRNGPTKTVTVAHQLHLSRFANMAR

[4] = biological target: T4, Sentrin-specific protease 6 (Homo sapiens, UniProt Q9GZR1); assay type: functional;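 note: Luminescence-based dose-response confirmatory assay of SENP6 inhibition, following up an ultra-high-throughput screen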
T4 sequence (Q9GZR1 whole entry): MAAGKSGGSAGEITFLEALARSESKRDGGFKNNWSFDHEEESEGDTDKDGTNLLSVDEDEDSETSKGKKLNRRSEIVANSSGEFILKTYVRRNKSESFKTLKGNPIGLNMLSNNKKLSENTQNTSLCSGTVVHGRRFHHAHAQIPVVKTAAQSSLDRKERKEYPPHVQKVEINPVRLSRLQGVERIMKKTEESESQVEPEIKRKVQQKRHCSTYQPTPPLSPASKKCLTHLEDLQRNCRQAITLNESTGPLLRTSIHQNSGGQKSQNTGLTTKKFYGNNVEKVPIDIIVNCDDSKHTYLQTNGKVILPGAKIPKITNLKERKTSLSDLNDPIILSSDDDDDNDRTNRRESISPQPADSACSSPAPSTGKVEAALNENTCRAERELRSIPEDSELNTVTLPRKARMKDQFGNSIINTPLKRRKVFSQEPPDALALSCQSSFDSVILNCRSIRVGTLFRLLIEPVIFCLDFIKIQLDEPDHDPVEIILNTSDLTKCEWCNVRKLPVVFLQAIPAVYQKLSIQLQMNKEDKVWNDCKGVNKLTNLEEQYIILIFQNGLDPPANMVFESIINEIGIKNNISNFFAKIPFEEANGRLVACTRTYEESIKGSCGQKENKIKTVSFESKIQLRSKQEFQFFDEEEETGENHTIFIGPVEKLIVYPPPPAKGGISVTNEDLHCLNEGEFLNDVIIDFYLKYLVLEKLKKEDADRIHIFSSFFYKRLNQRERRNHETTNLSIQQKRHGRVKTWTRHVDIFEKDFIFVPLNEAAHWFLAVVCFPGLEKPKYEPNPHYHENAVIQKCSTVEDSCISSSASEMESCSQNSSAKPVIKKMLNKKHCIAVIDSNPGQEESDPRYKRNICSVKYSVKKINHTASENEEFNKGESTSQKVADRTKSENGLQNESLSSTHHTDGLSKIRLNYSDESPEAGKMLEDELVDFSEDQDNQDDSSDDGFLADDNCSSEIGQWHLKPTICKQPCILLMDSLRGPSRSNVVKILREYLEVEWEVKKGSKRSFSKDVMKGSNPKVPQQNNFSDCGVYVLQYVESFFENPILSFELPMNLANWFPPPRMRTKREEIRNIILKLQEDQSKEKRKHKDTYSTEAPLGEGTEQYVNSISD

cells = assay type: functional, cell-based
[5] = biological target: Nuclear receptor subfamily 0 group B member 1 (Homo sapiens, UniProt P51843); assay type: functional, cell-based;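 note: HEK293T cells transfected with SF-1 and DAX-1 plus StAR promoter luciferase reporter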
Sequence of Nuclear receptor subfamily 0 group B member 1 (P51843 whole entry): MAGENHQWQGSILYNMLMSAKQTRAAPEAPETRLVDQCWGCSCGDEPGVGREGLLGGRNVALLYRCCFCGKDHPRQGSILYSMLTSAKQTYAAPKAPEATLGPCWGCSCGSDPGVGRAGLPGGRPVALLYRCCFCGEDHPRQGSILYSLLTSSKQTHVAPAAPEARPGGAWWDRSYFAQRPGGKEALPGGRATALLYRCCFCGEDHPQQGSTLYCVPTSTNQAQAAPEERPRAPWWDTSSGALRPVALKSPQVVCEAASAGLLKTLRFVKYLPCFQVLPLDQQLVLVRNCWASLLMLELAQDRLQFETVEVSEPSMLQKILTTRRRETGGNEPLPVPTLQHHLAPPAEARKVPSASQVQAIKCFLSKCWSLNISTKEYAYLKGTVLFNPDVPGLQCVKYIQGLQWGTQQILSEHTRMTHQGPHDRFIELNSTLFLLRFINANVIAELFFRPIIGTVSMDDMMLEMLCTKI

HEK293 = test: inhibitors of LMP1-driven NF-kB reporter, dose response, cell-based, HEK293, luciferase, cherry-pick (AID 588343); assay type: functional; conditions: Homo sapiens
[6] = biological target: T5, Sentrin-specific protease 8 (Homo sapiens, UniProt Q96LD8); assay type: functional;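 note: luminescence read-out of SENP8 inhibition, dose-response confirmation following an ultra-high-throughput screen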
T5 sequence (Q96LD8 whole entry): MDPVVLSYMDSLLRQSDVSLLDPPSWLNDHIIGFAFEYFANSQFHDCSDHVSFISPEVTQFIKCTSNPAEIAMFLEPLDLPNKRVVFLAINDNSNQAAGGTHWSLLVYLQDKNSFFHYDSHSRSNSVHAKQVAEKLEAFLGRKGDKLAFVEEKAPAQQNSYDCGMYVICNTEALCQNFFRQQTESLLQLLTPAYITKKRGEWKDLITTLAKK

Caspase-3 = biological target: T6, Caspase-3 (Homo sapiens, UniProt P42574); assay type: functional;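 note: Dose-response selectivity test against caspase-3 for candidate inhibitors of sentrin-specific proteases (SENPs)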
T6 sequence (P42574 whole entry): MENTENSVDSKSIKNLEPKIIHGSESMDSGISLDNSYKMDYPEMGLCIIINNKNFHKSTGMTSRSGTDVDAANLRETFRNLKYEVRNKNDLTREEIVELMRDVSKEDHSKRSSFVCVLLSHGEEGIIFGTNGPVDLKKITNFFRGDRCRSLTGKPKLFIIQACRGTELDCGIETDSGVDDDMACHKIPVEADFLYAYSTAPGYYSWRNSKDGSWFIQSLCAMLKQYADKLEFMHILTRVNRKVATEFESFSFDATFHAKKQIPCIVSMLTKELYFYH

[7] = biological target: T7, Sentrin-specific protease 7 (Homo sapiens, UniProt Q9BQF6); assay type: functional;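 note: Luminescence-based dose-response confirmation of ultra-high-throughput screening hits, measuring inhibition of SENP7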
T7 sequence (Q9BQF6 whole entry): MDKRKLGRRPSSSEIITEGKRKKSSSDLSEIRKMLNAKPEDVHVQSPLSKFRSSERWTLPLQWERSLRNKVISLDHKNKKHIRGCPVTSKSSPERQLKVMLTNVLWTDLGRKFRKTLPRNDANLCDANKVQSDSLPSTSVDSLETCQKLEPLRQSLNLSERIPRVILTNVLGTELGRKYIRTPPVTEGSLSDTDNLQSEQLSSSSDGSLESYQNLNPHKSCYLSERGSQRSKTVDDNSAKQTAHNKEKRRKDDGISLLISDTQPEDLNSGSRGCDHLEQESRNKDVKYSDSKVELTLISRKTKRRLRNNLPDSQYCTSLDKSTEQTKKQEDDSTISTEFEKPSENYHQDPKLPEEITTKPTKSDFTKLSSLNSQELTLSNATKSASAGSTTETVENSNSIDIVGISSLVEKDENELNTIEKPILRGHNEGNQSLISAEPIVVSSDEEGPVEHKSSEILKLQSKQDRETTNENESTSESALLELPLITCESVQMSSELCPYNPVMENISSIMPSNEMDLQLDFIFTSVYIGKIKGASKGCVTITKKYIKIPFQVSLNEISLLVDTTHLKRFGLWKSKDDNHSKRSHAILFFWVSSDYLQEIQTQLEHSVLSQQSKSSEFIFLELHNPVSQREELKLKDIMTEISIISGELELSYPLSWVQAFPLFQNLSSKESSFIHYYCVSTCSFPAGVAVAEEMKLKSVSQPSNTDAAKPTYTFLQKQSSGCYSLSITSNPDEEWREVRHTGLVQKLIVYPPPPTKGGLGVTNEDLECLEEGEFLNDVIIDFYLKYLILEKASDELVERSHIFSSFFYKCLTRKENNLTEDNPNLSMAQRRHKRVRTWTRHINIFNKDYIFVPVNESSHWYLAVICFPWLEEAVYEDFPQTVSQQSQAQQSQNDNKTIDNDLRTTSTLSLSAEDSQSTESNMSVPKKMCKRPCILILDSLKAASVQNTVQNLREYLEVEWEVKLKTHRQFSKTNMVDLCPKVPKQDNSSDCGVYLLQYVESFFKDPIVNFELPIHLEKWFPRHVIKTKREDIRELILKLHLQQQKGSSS

[8] = biological target: Dual specificity protein phosphatase 3 (Homo sapiens, UniProt P51452); test: SAR VHR1 Fluorescent Assay for In Vitro dose response studies Set 2. [Related pubchem assays (depositor defined):AID1654, AID1661, AID1878]; assay type: functional
Sequence of Dual specificity protein phosphatase 3 (P51452 whole entry): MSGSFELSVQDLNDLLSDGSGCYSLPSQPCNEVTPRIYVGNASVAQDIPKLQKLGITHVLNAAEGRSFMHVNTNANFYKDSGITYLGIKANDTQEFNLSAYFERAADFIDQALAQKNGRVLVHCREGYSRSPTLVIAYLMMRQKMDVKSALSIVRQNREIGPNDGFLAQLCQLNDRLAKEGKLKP

[9] = biological target: T8, Tyrosine-protein phosphatase non-receptor type 7 (Homo sapiens, UniProt P35236); test: SAR analysis of chemical inhibitors of HePTP using a Fluorescent assay - Set 2. [Related pubchem assays (depositor defined):AID1059, AID1077, AID1661, AID2085, AID521]; assay type: functional
T8 sequence (P35236 whole entry): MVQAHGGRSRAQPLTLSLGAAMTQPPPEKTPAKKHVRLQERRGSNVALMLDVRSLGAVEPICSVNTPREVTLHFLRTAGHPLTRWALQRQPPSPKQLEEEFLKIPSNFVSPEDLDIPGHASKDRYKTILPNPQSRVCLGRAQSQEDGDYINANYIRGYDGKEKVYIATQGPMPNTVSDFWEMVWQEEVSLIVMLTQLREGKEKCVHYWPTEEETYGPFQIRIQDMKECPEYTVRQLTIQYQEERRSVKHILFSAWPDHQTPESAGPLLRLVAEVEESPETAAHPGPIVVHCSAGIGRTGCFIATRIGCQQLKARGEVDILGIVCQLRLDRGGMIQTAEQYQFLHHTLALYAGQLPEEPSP

[10] = biological target: Glyceraldehyde-3-phosphate dehydrogenase (Homo sapiens, UniProt P04406)
Sequence of Glyceraldehyde-3-phosphate dehydrogenase (P04406 whole entry): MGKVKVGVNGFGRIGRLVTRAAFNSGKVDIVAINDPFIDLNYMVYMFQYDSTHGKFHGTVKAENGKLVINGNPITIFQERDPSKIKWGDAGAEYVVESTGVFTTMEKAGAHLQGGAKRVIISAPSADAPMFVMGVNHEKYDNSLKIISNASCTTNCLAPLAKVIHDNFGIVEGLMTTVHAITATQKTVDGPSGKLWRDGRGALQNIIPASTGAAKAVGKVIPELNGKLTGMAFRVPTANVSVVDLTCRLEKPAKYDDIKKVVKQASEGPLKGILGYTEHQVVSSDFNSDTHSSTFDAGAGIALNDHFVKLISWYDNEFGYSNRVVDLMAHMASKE

[11] = biological target: Alkaline phosphatase, placental type (Homo sapiens, UniProt P05187); test: PLAP enzyme inhibitors, confirmation, biochemical, luminescence (AID 1512); assay type: functional
Sequence of Alkaline phosphatase, placental type (P05187 whole entry): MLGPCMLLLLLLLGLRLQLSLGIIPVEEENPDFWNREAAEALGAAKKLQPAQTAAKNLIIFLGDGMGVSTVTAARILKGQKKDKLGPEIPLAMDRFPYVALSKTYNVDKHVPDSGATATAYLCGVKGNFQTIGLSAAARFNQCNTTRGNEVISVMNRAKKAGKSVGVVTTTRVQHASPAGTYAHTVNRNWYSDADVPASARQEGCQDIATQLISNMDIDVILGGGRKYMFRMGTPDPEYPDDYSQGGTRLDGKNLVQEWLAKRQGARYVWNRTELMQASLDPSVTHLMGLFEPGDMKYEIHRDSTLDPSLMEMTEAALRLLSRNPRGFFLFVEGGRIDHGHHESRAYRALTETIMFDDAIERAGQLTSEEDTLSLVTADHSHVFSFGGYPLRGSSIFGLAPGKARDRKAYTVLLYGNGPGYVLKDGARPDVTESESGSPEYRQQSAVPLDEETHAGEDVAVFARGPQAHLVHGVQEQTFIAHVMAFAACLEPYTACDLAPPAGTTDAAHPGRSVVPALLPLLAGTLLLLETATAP

Sequence of G-protein coupled receptor 55 (Q9Y2T6 whole entry): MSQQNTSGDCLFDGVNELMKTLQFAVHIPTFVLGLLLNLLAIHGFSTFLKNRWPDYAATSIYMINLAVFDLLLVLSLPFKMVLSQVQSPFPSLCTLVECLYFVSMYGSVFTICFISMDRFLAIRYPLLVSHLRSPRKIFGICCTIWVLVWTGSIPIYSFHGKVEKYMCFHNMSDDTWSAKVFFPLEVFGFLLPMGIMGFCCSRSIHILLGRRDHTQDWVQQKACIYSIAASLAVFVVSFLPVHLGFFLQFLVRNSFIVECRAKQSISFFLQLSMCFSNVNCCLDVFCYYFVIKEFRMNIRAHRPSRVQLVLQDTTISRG

In the case of `Clc1ncnc2scc(C3COc4ccccc4O3)c12` (stereo not given), the IC50 [1] is reported as 3.38 µM (active), the EC50 (Protein RecA) is reported as 3.97 µM (active) and the EC50 [2] is reported as 21.4 µM (active). For the same compound, the AC50 [3] was 7.16 µM (active).

With `Cc1ccn2c(c1)nc(=S)n2C(=O)c1ccccc1` the IC50 [4] was 72.3 µM (active), the IC50 (cells) was > 67.5 µM (inactive) and the IC50 [5] was > 0.0926 µM (active). The AC50 (HEK293) was 0.814 µM (active), the IC50 [6] was 94.9 µM (active) and the IC50 (Caspase-3) was 46.5 µM (active). The IC50 [7] was 4.09 µM (active).

For `O=S(=O)(c1ccc(NC(=S)N2CCN(Cc3ccc4c(c3)OCO4)CC2)cc1)N1CCOCC1`, the IC50 [8] was > 100 µM (inactive) and the IC50 [9] was 79.6 µM (active).

In the case of `O=C(c1cc(-c2ccc(Cl)cc2Cl)n[nH]1)N1CCCCCC1`, the IC50 [10] is reported as > 100 µM (not active) and the IC50 [11] is reported as > 100 µM (inactive).

Source: ChEMBL document CHEMBL1201862, “PubChem BioAssay data set” (2004)
